From ChEMBL document CHEMBL1201862, “PubChem BioAssay data set” (2004) come the findings set out here.

By Ki is commonly meant the equilibrium dissociation constant of an inhibitor or competing ligand from its target. One may read the EC50 as the concentration giving half of the maximal effect. A word on the IC50: it is the concentration that inhibits the measured activity by half. As a reminder, the AC50 is the concentration at which the activity in the assay is half-maximal.

SMILES strings stand for the structures. Calls of active or inactive are those of the source. Where only a bound is given, the exact number is not on record here.

The target in assay [1] is MAP/microtubule affinity-regulating kinase 4 (Homo sapiens, UniProt Q96L34). The assay can be described thus: Navigating the Kinome. Panel member name: MARK4. The format is functional.
For assay [2], the target named is T1, Zinc finger protein mex-5 (Caenorhabditis elegans, UniProt Q9XUB2).
T1 sequence (Q9XUB2 whole entry): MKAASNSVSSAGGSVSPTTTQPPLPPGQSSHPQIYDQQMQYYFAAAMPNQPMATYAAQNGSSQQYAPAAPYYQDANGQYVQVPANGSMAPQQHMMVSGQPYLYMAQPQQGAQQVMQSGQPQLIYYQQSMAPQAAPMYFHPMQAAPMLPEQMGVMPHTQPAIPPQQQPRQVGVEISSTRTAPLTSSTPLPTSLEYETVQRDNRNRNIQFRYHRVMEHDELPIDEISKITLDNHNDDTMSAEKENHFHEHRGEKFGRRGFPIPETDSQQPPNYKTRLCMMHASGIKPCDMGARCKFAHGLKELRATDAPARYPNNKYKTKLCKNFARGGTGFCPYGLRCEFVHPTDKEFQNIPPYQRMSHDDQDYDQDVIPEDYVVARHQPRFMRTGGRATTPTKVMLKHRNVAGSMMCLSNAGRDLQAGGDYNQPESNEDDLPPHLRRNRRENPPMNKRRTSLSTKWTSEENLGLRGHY
Briefly: MEX-5/TCR-2 RNA interaction inhibitors, dose response, biochemical, C. elegans, fluorescence polarization (AID 1960).

Assay [3] addresses T2, Sentrin-specific protease 8 (Homo sapiens, UniProt Q96LD8).
T2 sequence (Q96LD8 whole entry): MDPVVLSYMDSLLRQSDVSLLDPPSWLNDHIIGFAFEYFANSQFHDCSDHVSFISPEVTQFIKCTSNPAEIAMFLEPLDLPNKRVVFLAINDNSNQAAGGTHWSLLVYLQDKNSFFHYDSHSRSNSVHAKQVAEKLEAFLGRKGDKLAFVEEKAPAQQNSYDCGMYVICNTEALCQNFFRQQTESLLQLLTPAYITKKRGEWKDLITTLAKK
Format: functional.

The target in another assay is Keap1/Nrf2 (Homo sapiens, UniProt Q14145). Briefly: Keap1-Nrf2 protein-protein interaction inhibitors, dose response, biochemical, fluorescence polarization, cherry-picked samples (AID 588683). (In general: In fluorescence polarisation assays a small probe gives low polarisation when free and higher when bound to something large.)
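Throughout, for IC50: kinetic enzyme assay of SENP8 cleaving a Nedd8 protein substrate, dose-response confirmation of screening hits.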

Sequence of MAP/microtubule affinity-regulating kinase 4 (Q96L34 whole entry): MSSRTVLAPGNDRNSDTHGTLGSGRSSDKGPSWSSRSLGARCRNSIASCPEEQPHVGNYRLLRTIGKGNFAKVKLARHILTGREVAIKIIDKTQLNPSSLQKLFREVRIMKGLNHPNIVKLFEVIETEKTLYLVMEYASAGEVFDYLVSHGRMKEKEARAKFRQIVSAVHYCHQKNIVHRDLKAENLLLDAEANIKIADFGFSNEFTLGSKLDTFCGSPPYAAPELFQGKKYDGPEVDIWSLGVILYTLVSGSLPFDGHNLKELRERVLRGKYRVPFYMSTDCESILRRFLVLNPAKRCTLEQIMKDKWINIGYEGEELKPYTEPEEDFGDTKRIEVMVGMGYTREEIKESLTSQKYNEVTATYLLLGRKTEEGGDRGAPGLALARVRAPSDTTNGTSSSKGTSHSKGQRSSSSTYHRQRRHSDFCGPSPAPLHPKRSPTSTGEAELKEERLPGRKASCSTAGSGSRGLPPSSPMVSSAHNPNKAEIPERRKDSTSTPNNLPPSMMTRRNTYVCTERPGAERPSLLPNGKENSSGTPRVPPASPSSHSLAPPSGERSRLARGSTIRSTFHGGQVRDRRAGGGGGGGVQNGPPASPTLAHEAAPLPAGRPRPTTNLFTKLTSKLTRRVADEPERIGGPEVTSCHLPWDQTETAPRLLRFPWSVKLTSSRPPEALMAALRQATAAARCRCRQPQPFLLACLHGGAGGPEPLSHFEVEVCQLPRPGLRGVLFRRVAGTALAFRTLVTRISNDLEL
Sequence of Keap1/Nrf2 (Q16236 whole entry): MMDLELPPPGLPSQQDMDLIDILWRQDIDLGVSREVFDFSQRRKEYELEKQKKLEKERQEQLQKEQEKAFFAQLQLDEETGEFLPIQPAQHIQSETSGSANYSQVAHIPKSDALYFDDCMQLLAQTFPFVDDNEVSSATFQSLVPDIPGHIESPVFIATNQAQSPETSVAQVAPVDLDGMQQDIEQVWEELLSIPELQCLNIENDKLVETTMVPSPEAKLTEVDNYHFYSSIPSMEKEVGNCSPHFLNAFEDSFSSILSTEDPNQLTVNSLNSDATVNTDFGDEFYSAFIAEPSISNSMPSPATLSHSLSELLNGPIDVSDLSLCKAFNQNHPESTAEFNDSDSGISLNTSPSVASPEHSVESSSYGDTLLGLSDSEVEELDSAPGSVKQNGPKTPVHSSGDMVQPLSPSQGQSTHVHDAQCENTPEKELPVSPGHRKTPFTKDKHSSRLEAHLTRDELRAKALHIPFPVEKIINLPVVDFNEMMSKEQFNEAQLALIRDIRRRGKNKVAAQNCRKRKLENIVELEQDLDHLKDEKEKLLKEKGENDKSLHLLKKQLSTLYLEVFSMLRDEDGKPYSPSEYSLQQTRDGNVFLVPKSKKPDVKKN
Sequence of Keap1/Nrf2 (Q14145 whole entry): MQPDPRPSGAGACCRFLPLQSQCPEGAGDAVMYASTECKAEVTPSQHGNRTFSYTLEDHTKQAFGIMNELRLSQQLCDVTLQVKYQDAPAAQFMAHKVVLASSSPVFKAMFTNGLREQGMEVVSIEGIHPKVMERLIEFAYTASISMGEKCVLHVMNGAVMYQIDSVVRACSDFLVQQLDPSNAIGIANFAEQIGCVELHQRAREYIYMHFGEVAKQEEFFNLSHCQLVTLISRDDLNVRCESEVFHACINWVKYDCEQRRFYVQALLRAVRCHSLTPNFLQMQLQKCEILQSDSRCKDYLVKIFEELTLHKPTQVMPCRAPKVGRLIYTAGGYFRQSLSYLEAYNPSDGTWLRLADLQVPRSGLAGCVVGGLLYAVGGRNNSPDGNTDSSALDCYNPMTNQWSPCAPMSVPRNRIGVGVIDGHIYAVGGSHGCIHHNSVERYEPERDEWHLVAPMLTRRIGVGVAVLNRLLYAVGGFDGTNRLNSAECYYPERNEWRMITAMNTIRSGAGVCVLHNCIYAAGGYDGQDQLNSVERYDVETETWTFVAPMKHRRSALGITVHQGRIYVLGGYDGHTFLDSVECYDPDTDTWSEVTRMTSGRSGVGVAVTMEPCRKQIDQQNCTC

As to `Oc1ccc(-c2nc(-c3ccncc3)c(-c3ccc(F)cc3)[nH]2)cc1` [SB-202190], the Ki in assay [1] is > 5.01 µM (inactive).
With `c1ccc2nc3cc4[nH]cnc4cc3nc2c1`, in assay [2], the EC50 is 1.74 µM (inconclusive). Also, the IC50 in assay [3] was 10.8 µM (active). Also, on Keap1/Nrf2, the AC50 was 10.4 µM (active).
